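Each compound was tested at five concentrations against cells in 96-well plates for 48 hours. The concentration for full growth arrest is given as TGI.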
Assays:
Assay in all cases: growth of human tumour cells (NCI), 48 h
RXF 393 renal = system: RXF 393 renal
OVCAR-3 ovarian = system: OVCAR-3 ovarian
SF-268 CNS = system: SF-268 CNS
NCI/ADR-RES ovarian = system: NCI/ADR-RES ovarian
MDA-MB-435 = system: MDA-MB-435
HCT-116 colon = system: HCT-116 colon
TK-10 renal = system: TK-10 renal
COLO 205 colon = system: COLO 205 colon
A549 NSCLC = system: A549 NSCLC
MDA-MB-231 breast = system: MDA-MB-231 breast

| SMILES | TGI (RXF 393 renal) [µM] | TGI (OVCAR-3 ovarian) [µM] | TGI (SF-268 CNS) [µM] | TGI (NCI/ADR-RES ovarian) [µM] | TGI (MDA-MB-435) [µM] | TGI (HCT-116 colon) [µM] | TGI (TK-10 renal) [µM] | TGI (COLO 205 colon) [µM] | TGI (A549 NSCLC) [µM] | TGI (MDA-MB-231 breast) [µM] |
| --- | --- | --- | --- | --- | --- | --- | --- | --- | --- | --- |
| CSc1c(C#N)c(=O)[nH]c2n[nH]c(C)c12 | > 100 | > 100 | > 100 | > 100 | > 100 | > 100 | > 100 | > 100 | > 100 | > 100 |
| COc1cc(/C=C2\N=C(c3ccccc3)N(c3nc4c(OC)ccc(OC)c4s3)C2=O)cc(OC)c1OC | > 100 | > 100 | > 100 | > 100 | > 100 | > 100 | > 100 | > 100 | > 100 | > 100 |
| O=C1COc2ccc([N+](=O)[O-])cc2C(=O)C1 | > 10 | > 10 | > 10 | > 10 | > 10 | > 10 | > 10 | > 10 | > 10 | > 10 |
| O=S1(=O)c2ccccc2C(=NO)c2ccccc21 | > 100 | > 100 | > 100 | > 100 | > 100 | > 100 | > 100 | > 100 | > 100 | > 100 |
| NC(=S)Nc1[nH]c(=S)nc2c1SC1=N/C(=C\c3ccco3)C(=O)N12 | > 100 | > 100 | > 100 | > 100 | > 100 | > 100 | > 100 | > 100 | > 100 | > 100 |
| Cc1[nH]c2ccccc2c1C=Nc1ccc(N=Cc2c(C)[nH]c3ccccc23)cc1 | > 100 | > 100 | > 100 | > 100 | 51.7 | 38.2 | > 100 | 27.3 | > 100 | > 100 |
| CCOc1nc(-c2ccccc2)cc(-c2ccc(N3CCOCC3)cc2)c1C#N | > 100 | > 100 | > 100 | > 100 | > 100 | > 100 | > 100 | > 100 | > 100 | > 100 |
| O=C(OCc1ccccc1)C1(N2CN(C3(C(=O)OCc4ccccc4)CCCC3)CN(C3(C(=O)OCc4ccccc4)CCCC3)C2)CCCC1 | > 10 | > 10 | > 10 | > 10 | > 10 | > 10 | > 10 | > 10 | > 10 | > 10 |
| OC1(c2cc3ccccc3s2)CCCCC1 | > 100 | > 100 | 93.6 | > 100 | > 100 | > 100 | > 100 | 41.8 | > 100 | 87.5 |
| CN(NC(=O)CCCl)C1=NCCCCN1 | > 100 | > 100 | > 100 | > 100 | > 100 | > 100 | > 100 | > 100 | > 100 | > 100 |
| Oc1ccc(SCc2cc(O)c(O)c(O)c2)cc1 | > 100 | > 100 | > 100 | 58.5 | > 100 | 34.2 | > 100 | 36.9 | > 100 | > 100 |
| C(=C\c1ccccc1)/C=N/c1nc2cc3sc(/N=C/C=C/c4ccccc4)nc3cc2s1 | > 100 | > 100 | > 100 | > 100 | > 100 | > 100 | > 100 | > 25.8 | > 100 | > 100 |
| NC(=O)c1ccc2c(c1)S(=O)(=O)c1ccccc1C2=O | > 100 | > 100 | > 100 | > 100 | > 100 | > 100 | > 100 | > 100 | > 100 | > 100 |
| O=c1[nH]nc(-c2ccccc2)n1/N=C/c1c(O)ccc2ccccc12 | 85.2 | 43.2 | > 100 | > 100 | > 100 | > 100 | > 100 | > 100 | > 100 | > 100 |
| O=C(CCCCCCCCC(=O)N1C(=O)CC(=O)N(c2cccc(Cl)c2)C1=S)N1C(=O)CC(=O)N(c2cccc(Cl)c2)C1=S | > 100 | 65 | > 100 | 96.9 | > 100 | > 100 | > 100 | > 100 | > 100 | 84.3 |
| COC(=O)n1c(=O)n(-c2ccccc2)c(=O)n1C(=O)OC | > 100 | > 100 | > 100 | > 100 | > 100 | > 100 | > 100 | > 100 | > 100 | > 100 |
| O=c1c2cc(I)ccc2nc(Sc2ncccc2[N+](=O)[O-])n1Cc1ccccc1 | > 100 | > 100 | > 100 | > 100 | > 100 | > 100 | > 100 | > 100 | > 100 | > 100 |
| O=c1c(C=Nc2ccc([N+](=O)[O-])cc2)c(O)n(-c2ccccc2)c(=O)n1-c1ccccc1 | > 100 | > 100 | > 100 | > 100 | > 100 | > 100 | > 100 | > 100 | > 100 | > 100 |
| COc1cccc(N(CN2CC=CC2=O)C(C)=O)c1 | > 100 | > 100 | > 100 | > 100 | > 100 | > 100 | > 100 | > 100 | > 100 | > 100 |
| O=C1Cc2c([nH]c3ccc(Br)cc23)-c2ccccc2N1 | > 100 | > 100 | > 100 | > 100 | > 100 | […] | > 100 | > 100 | > 100 | > 100 |
| CN(C)Cc1cc(O)c(O)c(CN(C)C)c1 | > 100 | > 100 | > 100 | 65.9 | > 100 | > 100 | > 100 | > 100 | > 100 | > 100 |

From PubChem BioAssay (NCI)
